Results reported in paper PMC6592621 (Experimental neurology, 2019).

Legend:
[1] = in mice; ref Parkinson Study Group, 2007; cited from earlier work
[2] = over 4 weeks in subjects with PD; ref Parkinson Study Group, 2007; cited from earlier work
185 other kinases = conditions: at 1uM; ref Goodfellow et al., 2013; cited from earlier work
striatal DA = assay: HPLC of striatal neurochemistry in MPTP model; format: in vivo, C57BL/6J mice; conditions: MPTP 20 mg/kg s.c. 5 days, vs neurotoxin vehicle or drug vehicle
TH+ neurons in the SNpc = format: in vivo, C57BL/6J mice; conditions: MPTP-treated mice vs neurotoxin vehicle or drug vehicle controls
striatal TH = assay: Western blot of striatal TH in MPTP model; format: in vivo, C57BL/6J mice; conditions: 20 mg/kg MPTP for 5 days, vs neurotoxin vehicle or drug vehicle
p54-JNK = conditions: treatment in mice; ref Dong et al., 2016; cited from earlier work
p38 = conditions: treatment in mice; ref Dong et al., 2016; cited from earlier work
p46-JNK = conditions: treatment in mice; ref Dong et al., 2016; cited from earlier work
CD68 expression = conditions: mouse EAE hippocampus; ref Bellizzi et al., 2018; cited from earlier work

CCSCc1ccc2c(c1)c1c3c(c4c5cc(CSCC)ccc5n5c4c1n2[C@H]1C[C@](O)(C(=O)OC)[C@]5(C)O1)CNC3=O [CEP-1347]
brain/plasma ratio [1]: < 0.2
safety and tolerability [2]: safe and well tolerated
number of other kinases with 50% inhibition (185 other kinases): 185

CN1CC=C(c2ccccc2)CC1 [MPTP, 1-methyl-4-phenyl-1,2,3,6-tetrahydropyridine]
reduction in striatal dopamine (striatal DA): approximately 50%
reduction in the number of TH+ neurons in the SNpc (TH+ neurons in the SNpc): approximately 84%
reduction in striatal TH expression (striatal TH): approximately 50%

CN1CCN(Cc2ccc(-c3cnc4[nH]cc(-c5ccc6[nH]ccc6c5)c4c3)cc2)CC1 [URMC-099]
decrease in phosphorylation of p54-JNK (p54-JNK): 23.7%
decrease in phosphorylation of p38 (p38): 21.5%
decrease in phosphorylation of p46-JNK (p46-JNK): 17.3%
effect on CD68 expression (CD68 expression): prevented increased CD68 expression
